Values joined by “and” are separate entries in the source; they are usually repeats but may differ in a detail not shown here. Identical values can stand only once.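 Tested at 5 concentrations; 48 h exposure; 96-well plates; endpoints linearly interpolated, else capped at highest concentration. GI50 = concentration required for 50% inhibition of growth. Definition used: TGI = concentration required for complete inhibition of growth.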
Key:
Assay in all cases: NCI anticancer screen, dose series, 48 h
[1] = system: SF-295 CNS
[2] = system: MCF7 breast
[3] = system: UACC-257 melanoma
[4] = system: K-562 leukemia
[5] = system: IGROV1 ovarian
[6] = system: ACHN renal
[7] = system: SK-MEL-28 melanoma
[8] = system: CCRF-CEM leukemia
[9] = system: SR leukemia
[10] = system: NCI-H460 lung

Row | SMILES | TGI [1] | TGI [2] | TGI [3] | TGI [4] | TGI [5] | TGI [6] | TGI [7] | TGI [8] | TGI [9] | TGI [10] | GI50 [9] | GI50 [1] | GI50 [2] | GI50 [3] | GI50 [6] | GI50 [8]
1 | C[C@H](c1ccccc1)N1C(=O)[C@@H](O)[C@H]1[C@H](CO)OCc1ccccc1 | > 100 µM | > 100 µM | > 100 µM | > 100 µM | > 100 µM | > 100 µM | > 100 µM | > 100 µM | > 100 µM | – | – | – | – | – | – | –
2 | COC(=O)C1(NC(=O)C(CC(=O)OCc2ccccc2)NC(=O)OCc2ccccc2)CCCCCC1 (stereo not given) | > 100 µM | > 100 µM | – | 82.9 µM | > 100 µM | > 100 µM | > 100 µM | – | 87.4 µM | > 100 µM | – | – | – | – | – | –
3 | CCOC(=O)c1c(C)n(Cc2ccc(Cl)cc2Cl)c2c1cc(O)c1[nH]c3c(c12)CCCC3 | 97.2 µM | 52 µM | 43.2 µM | – | 75.2 µM | 61.2 µM | 45 µM | 77.1 µM | 0.379 µM | 89.9 µM | – | – | – | – | – | –
4 | CC(=O)c1c(-c2cccc3ccccc23)c(C#N)c(=S)n(C2OC(CO)C(O)C(O)C2O)c1C (stereo not given) | > 100 µM | > 100 µM | > 100 µM | > 100 µM | > 100 µM | > 100 µM | > 100 µM | > 100 µM | > 100 µM | > 100 µM | > 100 µM and 33.6 µM | – | – | – | – | –
5 | C[C@@]1(O)C2CC3CC1(c1ccccc1)CC(/C3=N/O)/C2=N\O (stereo not given in full) | > 100 µM | – | > 100 µM | > 100 µM | > 100 µM | > 100 µM | > 100 µM | > 100 µM | > 100 µM | > 100 µM | – | – | – | – | – | –
6 | OC1[C@@H]2[C@@H](O)CCCN2C[C@@H](O)[C@H]1O (stereo not given in full) | > 100 µM | > 100 µM | > 100 µM | > 100 µM | > 100 µM | > 100 µM | > 100 µM | > 100 µM | > 100 µM | > 100 µM | – | – | – | – | – | –
7 | CC1CC[C@@]2(OC1)OC1C[C@H]3[C@@H]4CC=C5CC(OC6OC(CO)C(OC7OC(CO)C(O)C(OC8OCC(O)C(O)C8O)C7OC7OC(CO)C(OC8OC(C)C(OC9OC(C)C(O)C(O)C9O)C(O)C8O)C(O)C7O)C(O)C6O)CCC5(C)[C@H]4CCC3(C)C1[C@@H]2C (stereo not given in full) | 13.8 µM | 26.8 µM | 18.1 µM | 19.6 µM | 16.6 µM | 9.92 µM | 20.1 µM | 21.9 µM | 50 µM | 20.2 µM | – | – | – | – | – | –
8 | CCc1n[nH]c(=O)n1CCCCCCCCCCCCn1c(CC)n[nH]c1=O | > 100 µM | > 100 µM | 40.2 µM | > 100 µM | > 100 µM | > 100 µM | – | 64.3 µM | > 100 µM | 71.9 µM | – | – | – | – | – | –
9 | O=C(Nc1ccccc1)N(C1=NCC(CI)S1)c1ccc(F)c(F)c1 (stereo not given) | > 100 µM | > 100 µM | > 100 µM | > 100 µM | > 100 µM | > 100 µM | 38.4 µM | 75.9 µM | > 100 µM | > 100 µM | – | – | – | – | – | –
10 | C=CCOC(=O)N1c2ccc(O[Si](C)(C)C(C)(C)C)cc2[C@@]23O[C@@]24[C@@H]1C#C/C=C\C#C[C@]3(O)C(OC)(OC)C[C@@H]4C | > 100 µM | > 92.4 µM | > 100 µM | > 100 µM | > 100 µM | > 100 µM | > 100 µM | > 100 µM | > 100 µM | > 100 µM | – | – | – | – | – | –
11 | Cc1ccc(S(=O)(=O)NC(=O)Nc2nnc(S(N)(=O)=O)s2)cc1 | > 100 µM | > 100 µM | – | > 100 µM | – | > 100 µM | – | > 100 µM | > 100 µM | > 100 µM | – | – | – | – | – | –
12 | O=C(O)CC(Cc1ccccc1Cl)C(=O)O (stereo not given) | > 100 µM | > 100 µM | > 100 µM | > 100 µM | > 100 µM | > 100 µM | > 100 µM | > 100 µM | – | > 100 µM | – | – | – | – | – | –
13 | O=c1[nH]c(Nc2ccccc2)nc2c1ncn2CC(O)CSCCO (stereo not given) | > 100 µM | > 100 µM | > 100 µM | – | > 100 µM | > 100 µM | > 100 µM | > 100 µM | > 100 µM | > 100 µM | – | – | – | – | – | –
14 | C=CCC1(C#N)C(=S)NC2=C(C(=O)CC(C)(C)C2)C1c1ccccc1 (stereo not given) | – | – | – | > 100 µM | > 100 µM | – | > 100 µM | > 100 µM | > 100 µM | – | – | – | – | – | – | –
15 | O=C(/C=C(/C=C/c1ccc2[nH]ccc2c1)OB(F)F)/C=C/c1ccc2[nH]ccc2c1 | > 100 µM | 15 µM | > 100 µM | – | – | 7.57 µM | – | > 100 µM | > 100 µM | – | 0.451 µM | 2.28 µM | 0.376 µM | 12.2 µM | 2.52 µM | 0.423 µM
16 | Cc1ccc(Nc2nc3[nH]ccc3c(=O)[nH]2)cc1 | > 100 µM | > 100 µM | > 100 µM | > 100 µM | > 100 µM | > 100 µM | – | > 100 µM | > 100 µM | > 100 µM | – | – | – | – | – | –
17 | Oc1cc(Cc2ccccc2)c(Cc2ccccc2)cc1O | > 10 µM | > 10 µM | > 10 µM | > 10 µM | > 10 µM | > 10 µM | > 10 µM | > 10 µM | – | > 10 µM | – | – | – | – | – | –
18 | CC(C)/C(Cl)=N/OC(=O)Nc1ccc(Br)cc1 | 28.8 µM | 24.9 µM | 28.7 µM | – | 27.1 µM | 3.77 µM | 14.1 µM | 2.93 µM | 4.5 µM | 30.7 µM | – | – | – | – | – | –
19 | Cc1ccc2nc(SCC(=O)N=Nc3c(O)[nH]c4ccccc34)n(-c3ccccc3)c(=O)c2c1 | 29.5 µM | 29.6 µM | 55.7 µM | 61.9 µM | – | 26.7 µM | 31.2 µM | 34.5 µM | 36.7 µM | 29 µM | – | – | – | – | – | –
20 | COc1ccc2c(c1)C(=O)CC1c3cnccc3C(=O)N21 (stereo not given) | > 100 µM | > 100 µM | > 100 µM | > 100 µM | > 100 µM | > 100 µM | > 100 µM | – | > 100 µM | > 100 µM | – | – | – | – | – | –
21 | CC(=O)Nc1ccc2c(C)c3c(nc2n1)[nH]c1ccccc13 | 78.8 µM | > 100 µM | > 100 µM | > 100 µM | 71.4 µM | 59.6 µM | – | > 100 µM | 64.9 µM | 49 µM | – | – | – | – | – | –
22 | [N-]=[N+]=Nc1c(Cc2ccccc2)c(Cl)nc2ccccc12 | 62.1 µM | 58.8 µM | > 100 µM | 83.7 µM | > 100 µM | > 100 µM | > 100 µM | > 100 µM | – | > 100 µM | – | – | – | – | – | –
